# Where no end group is shown, it is not given here.
# Columns and labels:
# S. epidermidis 1457 = experiment: microbe, parasite or virus in culture; assay type: cell-based, Staphylococcus epidermidis; conditions: Staphylococcus epidermidis, MHB, Table 8, read-out: Antimicrobial activity (MIC) S. epidermidis 1457
# How it was run: (§1)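 Peptides twofold serially diluted against exponential-phase resistant clinical isolates at ~10^5 CFU/mL in MHB (also diluted MHB, TSB or LB in one protocol), CLSI-based broth microdilution. Incubated overnight at 37° C., OD 600 nm read; MIC taken as lowest concentration without growth, reported as ranges.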
# [1] = Effect of MHB dilution on antibacterial activity of a panel of antibiotics; assay type: cell-based; conditions: MHB from 100 to 12.5%
# E. coli E423-17 [2] = experiment: Membrane depolarization (DiBAC4(3)); assay type: cell-based, Escherichia coli; conditions: Example 1
# A. baumannii B28-16 = assay type: cell-based, Acinetobacter baumannii; conditions: B28-16
# How it was run: as §1
# [3] = system: human keratinocyte HaCaT cells; experiment: Cell viability assay (MTS); assay type: cell-based
# Protocol: Human keratinocyte HaCaT cells were grown in DMEM/high glucose (Hyclone, UT) containing 10% fetal bovine serum (Mediatech, Corning, Manassas, VA). […] The mixture was incubated at 37° C. in 5% CO2 for 24 hours.
# HepG2 cells were cultured in ATCC-formulated Eagle's Minimum Essential Medium with 10% FBS. A549 cells were grown in ATCC-formulated F-12K Medium containing 10% FBS.
# chymotrypsin = biological target: T1, chymotrypsin (Bos taurus, UniProt P00766); assay type: in vitro ADME, mammalian
# T1 construct: purchased Thermo Fisher Scientific
# Protocol: A solution of peptide/protease (40:1 molar ratio) was made in phosphate-buffered saline (PBS; pH 7.1, Gibco, NY) and incubated at 37° C. for 1 hour. As controls, peptides without proteases were also incubated in the same manner. Then, aliquots of 10 μL were transferred to a 96-well polystyrene microplate and mixed with the exponential-phase MRSA USA300 culture as performed in the antibacterial activity assays above.
# MRSA USA300 = experiment: Biofilm inhibition; assay type: cell-based, Staphylococcus aureus; conditions: 0.5 to 2×MIC, 24 h
# Protocol: Biofilm Inhibition. MRSA USA300 (10^5 CFU/mL) was prepared from the exponential phase. […] Media were then pipetted out, and the wells were washed with 1×PBS to remove planktonic cells. Live cells in biofilms were quantitated by XTT as described above.
# E. coli E423-17 [4] = experiment: Membrane permeabilization (propidium iodide); assay type: cell-based, Escherichia coli; conditions: Example 1, 1×MIC
Compound,MIC (S. epidermidis 1457) [µM],change in MIC with dilution of MHB [1],membrane depolarization (E. coli E423-17 [2]),Activity (MIC) A. baumannii (A. baumannii B28-16) [µM],toxicity to human HaCaT skin cells [3],activity after protease incubation (chymotrypsin),inhibition of biofilm formation (MRSA USA300),membrane permeabilization (E. coli E423-17 [4])
CCCCCCCCCC(=O)N[C@@H](Cc1c[nH]c2ccccc12)C(=O)N[C@H](CC(N)=O)C(=O)N[C@@H](CC(=O)O)C(=O)N[C@@H]1C(=O)NCC(=O)N[C@@H](CCCN)C(=O)N[C@@H](CC(=O)O)C(=O)N[C@H](C)C(=O)N[C@@H](CC(=O)O)C(=O)NCC(=O)N[C@H](CO)C(=O)N[C@@H]([C@H](C)CC(=O)O)C(=O)N[C@@H](CC(=O)c2ccccc2N)C(=O)O[C@@H]1C [Daptomycin],0.5 to 1,essentially no changes,,,,,,
RRWWRWWR-NH2 [W543],,,some depolarization,>32,least toxic,started to lose activity,more effective than daptomycin,30 minute delay in membrane permeabilization

# Reference: patent US20250101062A1, “ANTIMICROBIAL PEPTIDES” (Board of Regents of the University of Nebraska, priority 2023, published 2025)
